Where “and” joins values, the source holds several entries; their conditions need not be identical. Equal values may be shown once. Read-outs that look alike come from different tables or passages of the source.
How the values were obtained:
[1] = target: T1, wild-type mouse Pgp (MDR3) (Mus musculus, UniProt P21447)
Description: Overexpression of wild-type mouse Pgp (MDR3) was achieved by using genetically engineered strains of Pichia pastoris with a 6X histidine tag. The cells were cultured in glycerol media, and methanol was used to induce the overexpression of Pgp at the Bioexpression and Fermentation Facility (BFF), University of Georgia, Athens, GA, USA. A repeated cycle of freezing using liquid nitrogen, blending, and thawing was used to lyse the Pgp-expressing P. pastoris cells. The protein was purified using affinity chromatography with nickel-nitrilotriacetic acid (Ni-NTA) resin (Thermo Fisher Scientific, Waltham, MA, USA). DDM was used to solubilize the protein, and the solution was concentrated using Amicon Ultra-15 100 kDa cut-off filters (EMD Millipore, Billerica, MA, USA). The concentration of purified protein was measured at 280 nm using a calculated extinction coefficient of 1.28 per mg mL^−1 on a Nanodrop (DeNovix, Wilmington, DE, USA). […] The purified DDM-solubilized Pgp was aliquoted and stored at −80 °C for future analysis.
Approximately 40 µL of DDM-solubilized Pgp was dialyzed for two hours against HEPES buffer (20 mM HEPES, 100 mM NaCl, 5 mM MgCl2, 2 mM DTT, pH 7.4) to remove any remnants of the detergent, DDM. The dialyzed protein was mixed with 4 mg mL^−1 of the extruded liposomes and incubated on ice for at least one hour to allow Pgp to integrate into the liposomes. To remove any additional detergent and further facilitate Pgp integration into the liposome, the solution was dialyzed for a second time for two hours in HEPES buffer to form proteoliposomes, and the concentration of Pgp reconstituted in liposomes was determined using the Bio-Rad DC Protein assay. Finally, the solution was aliquoted and stored at −80 °C for future use.
Acrylamide, an aqueous collisional quencher, can be used to determine the changes in conformation upon Pgp-drug interaction. The principle of this technique is that as the drug interacts with the protein, the conformation of the accessible tryptophan residues in the protein also changes, resulting in a shift in fluorescence intensity. For this experiment, to measure the fluorescence of Pgp reconstituted in liposomes, in the presence (250 µM) or absence of drug(s), the excitation and emission wavelengths used were 295 nm and 330 nm, respectively. The proteoliposomes were diluted to a final concentration of 1 µM in Chifflet buffer (pH 7.4) containing 2 mM DTT, and it was titrated against an increasing concentration of acrylamide. A concentration of 11 µM N-acetyl-L-tryptophanamide (NATA), an analog of tryptophan, was used as a positive control to determine non-specific quenching. A saturated concentration of AMPPNP (3.2 mM), a non-hydrolysable form of ATP, was used to generate an outward-open conformation of Pgp. All the experiments for acrylamide quenching were performed at 21 °C. To correct the fluorescence intensities for background, dilution, and inner filter effects, […] was used. A Stern–Volmer plot was constructed with F0(corrected)/F(corrected) versus acrylamide concentration. The slope of the curve determined the degree of quenching, and it was related to the Stern–Volmer constant (Ksv) by Equation (4), as follows:(4) Focorrected/Fcorrected=1+KsvQ where F0(corrected)/F(corrected) = Stern–Volmer plot; Ksv = Stern–Volmer constant; and [Q] = acrylamide concentration.

[2] = target: T1, wild-type mouse Pgp (MDR3); remark: listed apart in the source
Excerpt: The STDD NMR technique is a robust method used to characterize the interaction between a drug and receptor protein [36, 86]. This technique utilizes a saturated low-strength radio frequency (RF) to selectively excite the receptor protein. […] Due to the localization of Pgp, most of its substrates are lipophilic, resulting in a probable non-specific interaction between its substrates and liposomes in the observed STD NMR spectrum. Therefore, STD NMR of liposomes in the presence of drugs was performed. The resulting spectrum was subtracted from the ^1H STD NMR spectrum obtained from the drug in the presence of proteoliposome (Pgp reconstituted into liposome) to achieve a saturation transfer double-difference (STDD) NMR spectrum, which nullified the STD observations of the drugs in the presence of liposomes.
This technique was performed as previously described. […] The NMR tubes with the sample were centrifuged at 3000× g for 5 min. To suppress the background signals caused by water, a tailored gradient pulse sequence known as water suppression by gradient-tailored excitation (WATERGATE) was also included. A train of 50 ms Gaussian-shaped selective pulses was used to selectively excite and saturate Pgp for two seconds, and a relaxation delay of five seconds was also used. The STD NMR spectra for both the control and the samples were obtained through phase cycling, where the Pgp irradiation resonance was alternated between 1.5 ppm and 42 ppm on and off resonance, respectively, for 512 scans, creating the ^1H NMR spectrum.
For this experiment, the NMR studies were performed on a Bruker Avance NEO 800 MHz NMR spectrometer with a 1.7 mm TCI H{CN} probe at 25 °C. The STD NMR data generated were analyzed using iNMR software (Nucleomatic, Molfetta, Italy), Igor Pro 6.2, and Mnova 14.2.0 (Mastrelab Research S.L., Santiago de Compostela, Spain).

[3] = 250 µM drug, 3.2 mM AMPPNP, 21 °C
[4] = 250 µM drug, 3.2 mM AMPPNP, inferred from Ksv
[5] = 250 µM drug, absence of AMPPNP, 21 °C, apo-Pgp 2.5 ± 0.04
[6] = 250 µM drug, no AMPPNP, inferred from Ksv

T1 sequence (P21447 whole entry): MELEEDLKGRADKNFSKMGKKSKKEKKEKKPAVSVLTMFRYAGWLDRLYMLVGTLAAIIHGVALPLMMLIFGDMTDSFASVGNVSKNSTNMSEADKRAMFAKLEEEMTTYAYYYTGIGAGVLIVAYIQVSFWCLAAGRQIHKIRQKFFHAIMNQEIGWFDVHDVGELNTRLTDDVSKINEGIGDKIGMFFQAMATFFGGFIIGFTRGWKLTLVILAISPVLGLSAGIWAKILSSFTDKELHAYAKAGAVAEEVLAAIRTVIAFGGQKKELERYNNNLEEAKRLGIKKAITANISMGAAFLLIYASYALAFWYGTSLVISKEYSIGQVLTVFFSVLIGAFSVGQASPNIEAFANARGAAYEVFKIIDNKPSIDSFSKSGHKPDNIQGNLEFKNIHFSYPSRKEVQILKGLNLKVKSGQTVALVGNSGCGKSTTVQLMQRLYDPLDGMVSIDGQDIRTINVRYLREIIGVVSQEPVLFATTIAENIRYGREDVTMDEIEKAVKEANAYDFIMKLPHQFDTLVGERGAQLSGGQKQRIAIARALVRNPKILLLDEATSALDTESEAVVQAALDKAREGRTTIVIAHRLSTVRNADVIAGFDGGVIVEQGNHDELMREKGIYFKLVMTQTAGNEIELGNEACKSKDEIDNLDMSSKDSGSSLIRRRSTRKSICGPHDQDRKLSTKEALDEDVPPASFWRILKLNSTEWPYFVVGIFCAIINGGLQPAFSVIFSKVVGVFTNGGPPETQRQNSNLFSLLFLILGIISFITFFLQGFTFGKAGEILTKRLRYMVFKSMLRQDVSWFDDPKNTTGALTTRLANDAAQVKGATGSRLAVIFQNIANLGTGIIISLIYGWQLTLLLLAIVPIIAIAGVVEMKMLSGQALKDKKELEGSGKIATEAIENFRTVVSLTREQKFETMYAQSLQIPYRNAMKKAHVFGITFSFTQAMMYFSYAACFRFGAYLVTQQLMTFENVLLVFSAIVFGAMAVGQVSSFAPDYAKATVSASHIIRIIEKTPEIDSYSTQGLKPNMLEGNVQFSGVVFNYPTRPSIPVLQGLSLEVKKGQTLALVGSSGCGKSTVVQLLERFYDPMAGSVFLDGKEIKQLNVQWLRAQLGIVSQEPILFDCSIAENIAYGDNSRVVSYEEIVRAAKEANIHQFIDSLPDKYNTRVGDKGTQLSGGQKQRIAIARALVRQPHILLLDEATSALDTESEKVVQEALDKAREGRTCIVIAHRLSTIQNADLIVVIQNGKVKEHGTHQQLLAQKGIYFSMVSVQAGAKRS

SMILES | Drug-induced Ksv of Pgp (acrylamide quenching), AMPPNP (+) [1, 3] | Drug-induced Ksv of Pgp (acrylamide quenching), AMPPNP (+) ([1]; 250 µM drug, 3.2 mM AMPPNP, 21 °C, listed as digitoxigenin) | Pgp conformation with drug in the presence of a nucleotide [1, 4] | Drug-induced Ksv of Pgp (acrylamide quenching), AMPPNP (-) [1, 5] | Pgp conformation upon drug binding in the absence of a nucleotide [1, 6] | Interaction (Region/Group) Pgp (STDD-NMR Data) ([2]; 1 mM drug, 1 µM Pgp, 25 °C) | Drug-induced Ksv of Pgp (acrylamide quenching), AMPPNP (+) [1] | Drug-induced Ksv of Pgp (acrylamide quenching), AMPPNP (-) [1] | Pgp conformation upon drug binding in the absence of a nucleotide [1] | Pgp conformation with drug in the presence of a nucleotide [1] | Interaction (Region/Group) Pgp (STDD-NMR Data) ([2]; mouse, not told, 1 mM, pH 7.4)
C[C@]12CC[C@H](O)C[C@H]1CC[C@@H]1[C@@H]2CC[C@]2(C)[C@@H](C3=CC(=O)OC3)CC[C@]12O [Digitoxigenin, (3β,5β)-3,14-Dihydroxy-card-20(22)-enolide] | 1.51 ± 0.02 M⁻¹ | 1.51 ± 0.02 M⁻¹ and 1.51 ± 0.01 M⁻¹ | outward open | 1.91 ± 0.04 M⁻¹ | intermediate | Protons on C1, C12, C18, C19 of steroid; C22 of lactone |  |  |  |  | 
C[C@]12CC[C@H](O)C[C@H]1CC[C@@H]1[C@@H]2C[C@@H](O)[C@]2(C)[C@@H](C3=CC(=O)OC3)CC[C@]12O [Digoxigenin, 3β,12β,14-Trihydroxy-5β,20(22)-cardenolide] | 1.70 ± 0.01 M⁻¹ |  | outward open | 2.26 ± 0.04 M⁻¹ | intermediate | Protons on C1, C3,C12, C17, C18, C19 of steroid; C21, C22 of lactone |  |  |  |  | 
C[C@H]1O[C@@H](O[C@H]2[C@@H](O)C[C@H](O[C@H]3[C@@H](O)C[C@H](O[C@H]4CC[C@@]5(C)[C@H](CC[C@@H]6[C@@H]5C[C@@H](O)[C@]5(C)[C@@H](C7=CC(=O)OC7)CC[C@]65O)C4)O[C@@H]3C)O[C@@H]2C)C[C@H](O)[C@@H]1O [Digoxin] |  |  |  |  |  |  | 1.51 ± 0.02 and 1.51 ± 0.02 M^−1 | 2.55 ± 0.06 and 2.55 ± 0.06 M^−1 | no effect | outward open | Protons on C3,C18, C19 of steroid; C22 of lactone; C3,C5,C6 of sugar
